Results from patent US20260226068A1, “IMIDAZOTRIAZINE IL-17A MODULATORS AND USES THEREOF” (DICE ALPHA, INC., priority 2023, published 2026).

Experiments:
[1] = target: T1, IL-17A/F (Homo sapiens, UniProt Q16552+Q96PD4); test: IL-17A/F HEK-Blue cell assay (SEAP reporter); type: cell-based; conditions: HEK-Blue IL-17A reporter cells, IL17A/F 5 ng/mL, 20 hours, SEAP read at A630; read-out: HEK-Blue IL17AF (IC50 for IL-17A/F inhibition)
T1 construct: purchased R&D Systems
T1 sequence (Q16552 24-155): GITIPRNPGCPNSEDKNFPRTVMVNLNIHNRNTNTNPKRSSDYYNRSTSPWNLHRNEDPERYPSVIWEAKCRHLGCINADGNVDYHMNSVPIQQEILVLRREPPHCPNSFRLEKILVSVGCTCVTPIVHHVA
T1 sequence (Q96PD4 31-163): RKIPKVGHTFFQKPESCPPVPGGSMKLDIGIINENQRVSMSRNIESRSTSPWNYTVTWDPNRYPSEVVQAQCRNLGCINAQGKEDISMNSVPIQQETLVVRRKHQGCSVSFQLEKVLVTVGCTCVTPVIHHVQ

[2] = target: T2, IL-17A/A (Homo sapiens, UniProt Q16552); test: IL-17A/A HEK-Blue cell assay (SEAP reporter); type: cell-based; conditions: HEK-Blue IL-17A reporter cells, IL17A/A 5 ng/mL, 20 hours, SEAP read at A630; read-out: HEK-Blue IL17AA (IC50 for IL-17A/A inhibition)
T2 construct: purchased Genscript Z03228
T2 sequence (Q16552 24-155): T1 sequence (Q16552 24-155)

Row | SMILES | IC50 [1] [nM] | IC50 [2] [nM]
1 | Cn1nccc1C(=O)N[C@H](c1cn2nc(C[C@H]3C[C@@H](C(F)(F)F)CNC3=O)c(CC3COC3)nc2n1)C1CCCCCC1 [Compound 377, N—((S)-cycloheptyl(3-(oxetan-3-ylmethyl)-2-(((3R,5R)-2-oxo-5-(trifluoromethyl)piperidin-3-yl)methyl)imidazo[1,2-b][1,2,4]triazin-6-yl)methyl)-1-methyl-1H-pyrazole-5-carboxamide] | 100 to 1000 | < 100
2 | CCn1nccc1C(=O)N[C@H](c1cn2nc(C[C@H]3CCCNC3=O)c(C3CCOCC3)nc2n1)C1CCC(F)(F)CC1 [Compound 379] | > 1000 | < 100
3 | CCn1nccc1C(=O)N[C@H](c1cn2nc(C[C@@H]3CCCNC3=O)c(C3CCOCC3)nc2n1)C1CCC(F)(F)CC1 [Compound 380] | > 1000 | < 100
4 | CCn1nccc1C(=O)N[C@H](c1cn2nc(C[C@H]3C[C@@H](C)CNC3=O)c(C(C)C)nc2n1)C1CCC(F)(F)CC1 [Compound 389] | > 1000 | 100 to 1000
5 | CCn1nccc1C(=O)N[C@H](c1cn2nc(C[C@@H]3C[C@@H](C)CNC3=O)c(C(C)C)nc2n1)C1CCC(F)(F)CC1 [Compound 390] | 100 to 1000 | < 100
6 | CCn1nccc1C(=O)N[C@H](c1cn2nc(C[C@H]3C[C@H](C)CNC3=O)c(C(C)C)nc2n1)C1CCC(F)(F)CC1 [Compound 391] | > 1000 | < 100
7 | CCn1nccc1C(=O)N[C@H](c1cn2nc(C[C@@H]3C[C@H](C)CNC3=O)c(C(C)C)nc2n1)C1CCC(F)(F)CC1 [Compound 392] | > 1000 | < 100
8 | CCn1nccc1C(=O)N[C@H](c1cn2nc(C[C@H]3C[C@@H](C(F)(F)F)CNC3=O)c(CN3CCOCC3)nc2n1)C(C1CC1)C1CC1 [Compound 406, N—((S)-2,2-dicyclopropyl-1-(3-(morpholinomethyl)-2-(((3R,5R)-2-oxo-5-(trifluoromethyl)piperidin-3-yl)methyl)imidazo[1,2-b][1,2,4]triazin-6-yl)ethyl)-1-ethyl-1H-pyrazole-5-carboxamide] | 100 to 1000 | < 100
9 | Cc1nonc1C(=O)N[C@H](c1cn2nc(C[C@H]3C[C@@H](C(F)(F)F)CNC3=O)c(CN3CCOCC3)nc2n1)C1CCC(F)(F)CC1 [Compound 407] | > 1000 | 100 to 1000
10 | Cc1nonc1C(=O)N[C@H](c1cn2nc(C[C@H]3C[C@@H](C(F)(F)F)CNC3=O)c(N3CCN(C)C4(CC4)C3)nc2n1)C1CCC(F)(F)CC1 [Compound 411, N—((S)-(4,4-difluorocyclohexyl)(3-(4-methyl-4,7-diazaspiro[2.5]octan-7-yl)-2-(((3R,5R)-2-oxo-5-(trifluoromethyl)piperidin-3-yl)methyl)imidazo[1,2-b][1,2,4]triazin-6-yl)methyl)-4-methyl-1,2,5-oxadiazole-3-carboxamide] | > 1000 | < 100
11 | CCn1nccc1C(=O)N[C@H](c1cn2nc(C[C@H]3C[C@@H](C(F)(F)F)CNC3=O)c(CN3CCN(C)CC3)nc2n1)C1CCC(F)(F)CC1 [Compound 412, N—((S)-(4,4-difluorocyclohexyl)(3-((4-methylpiperazin-1-yl)methyl)-2-(((3R,5R)-2-oxo-5-(trifluoromethyl)piperidin-3-yl)methyl)imidazo[1,2-b][1,2,4]triazin-6-yl)methyl)-1-ethyl-1H-pyrazole-5-carboxamide] | > 1000 | 100 to 1000
12 | CCn1nccc1C(=O)N[C@H](c1cn2nc(C[C@H]3C[C@@H](C(F)(F)F)CNC3=O)c(C3CCCN3C)nc2n1)C1CCC(F)(F)CC1 (stereo partly drawn) [Compound 413] | > 1000 | 100 to 1000

More lines, now with the values ahead:

Row | IC50 [1] [nM] | IC50 [2] [nM] | SMILES
13 | 100 to 1000 | < 100 | CCn1nccc1C(=O)N[C@H](c1cn2nc(C[C@H]3C[C@@H](C(F)(F)F)CNC3=O)c(CN3CCC(F)(F)C3)nc2n1)[C@H]1CC[C@H](C)CC1 [Compound 375, N—((S)-(3-((3,3-difluoropyrrolidin-1-yl)methyl)-2-(((3R,5R)-2-oxo-5-(trifluoromethyl)piperidin-3-yl)methyl)imidazo[1,2-b][1,2,4]triazin-6-yl)((1r,4S)-4-methylcyclohexyl)methyl)-1-ethyl-1H-pyrazole-5-carboxamide]
14 | > 1000 | < 100 | O=C(N[C@H](c1cn2nc(C[C@H]3C[C@@H](C(F)(F)F)CNC3=O)c(C3CCOCC3)nc2n1)C1CCC(F)(F)CC1)c1ccnn1CCN1CCOCC1 [Compound 378, N—((S)-(4,4-difluorocyclohexyl)(2-(((3R,5R)-2-oxo-5-(trifluoromethyl)piperidin-3-yl)methyl)-3-(tetrahydro-2H-pyran-4-yl)imidazo[1,2-b][1,2,4]triazin-6-yl)methyl)-1-(2-morpholinoethyl)-1H-pyrazole-5-carboxamide]
15 | 100 to 1000 | < 100 | CCn1ncnc1C(=O)N[C@H](c1cn2nc(C[C@H]3C[C@@H](C(F)(F)F)CNC3=O)c(C3CCOCC3)nc2n1)[C@H]1CC[C@H](C)CC1 [Compound 383, 1-ethyl-N—((S)-((1r,4S)-4-methylcyclohexyl)(2-(((3R,5R)-2-oxo-5-(trifluoromethyl)piperidin-3-yl)methyl)-3-(tetrahydro-2H-pyran-4-yl)imidazo[1,2-b][1,2,4]triazin-6-yl)methyl)-1H-1,2,4-triazole-5-carboxamide]
16 | > 1000 | < 100 | CCn1ncnc1C(=O)N[C@H](c1cn2nc(C[C@H]3C[C@@H](C(F)(F)F)CNC3=O)c(C3CCOCC3)nc2n1)C(C1CC1)C1CC1 [Compound 385, N—((S)-2,2-dicyclopropyl-1-(2-(((3R,5R)-2-oxo-5-(trifluoromethyl)piperidin-3-yl)methyl)-3-(tetrahydro-2H-pyran-4-yl)imidazo[1,2-b][1,2,4]triazin-6-yl)ethyl)-1-ethyl-1H-1,2,4-triazole-5-carboxamide]
17 | > 1000 | < 100 | CCn1ncnc1C(=O)N[C@H](c1cn2nc(C[C@H]3C[C@@H](C(F)(F)F)CNC3=O)c(C(C)C)nc2n1)C1CCC(F)(F)CC1 [Compound 386, N—((S)-(4,4-difluorocyclohexyl)(3-isopropyl-2-(((3R,5R)-2-oxo-5-(trifluoromethyl)piperidin-3-yl)methyl)imidazo[1,2-b][1,2,4]triazin-6-yl)methyl)-1-ethyl-1H-1,2,4-triazole-5-carboxamide]
18 | > 1000 | 100 to 1000 | CCn1ncnc1C(=O)N[C@H](c1cn2nc(C[C@H]3C[C@H](C)CNC3=O)c(C3CCOCC3)nc2n1)C1CCC(F)(F)CC1 [Compound 387]
19 | > 1000 | < 100 | CCn1ncnc1C(=O)N[C@H](c1cn2nc(C[C@@H]3C[C@H](C)CNC3=O)c(C3CCOCC3)nc2n1)C1CCC(F)(F)CC1 [Compound 388]
20 | > 1000 | 100 to 1000 | CCc1nonc1C(=O)N[C@H](c1cn2nc(C[C@H]3C[C@@H](C)CNC3=O)c(C3CCOCC3)nc2n1)C1CCC(F)(F)CC1 [Compound 393]
21 | > 1000 | < 100 | CCc1nonc1C(=O)N[C@H](c1cn2nc(C[C@@H]3C[C@@H](C)CNC3=O)c(C3CCOCC3)nc2n1)C1CCC(F)(F)CC1 [Compound 394]
22 | > 1000 | < 100 | CCc1nonc1C(=O)N[C@H](c1cn2nc(C[C@H]3C[C@H](C)CNC3=O)c(C3CCOCC3)nc2n1)C1CCC(F)(F)CC1 [Compound 395]
23 | > 1000 | < 100 | CCc1nonc1C(=O)N[C@H](c1cn2nc(C[C@@H]3C[C@H](C)CNC3=O)c(C3CCOCC3)nc2n1)C1CCC(F)(F)CC1 [Compound 396]
24 | > 1000 | < 100 | Cc1nonc1C(=O)N[C@H](c1cn2nc(C[C@@H]3C[C@@H](C)CNC3=O)c(C3CCOCC3)nc2n1)C1CCC(F)(F)CC1 [Compound 397]
25 | > 1000 | 100 to 1000 | Cc1nonc1C(=O)N[C@H](c1cn2nc(C[C@H]3C[C@H](C)CNC3=O)c(C3CCOCC3)nc2n1)C1CCC(F)(F)CC1 [Compound 398]
26 | > 1000 | < 100 | Cc1nonc1C(=O)N[C@H](c1cn2nc(C[C@@H]3C[C@H](C)CNC3=O)c(C3CCOCC3)nc2n1)C1CCC(F)(F)CC1 [Compound 399]
27 | 100 to 1000 | < 100 | Cn1nccc1C(=O)N[C@H](c1cn2nc(C[C@H]3C[C@@H](C(F)(F)F)CNC3=O)c(C3CCOCC3)nc2n1)C1CCCCC1 [Compound 405]
28 | < 100 | < 100 | CCn1nccc1C(=O)N[C@H](c1cn2nc(C[C@H]3C[C@@H](C(F)(F)F)CNC3=O)c(CN3CCOCC3C)nc2n1)[C@H]1CC[C@H](C)CC1 (stereo partly drawn) [Compound 408, 1-ethyl-N-((1S)-((1r,4S)-4-methylcyclohexyl)(3-((3-methylmorpholino)methyl)-2-(((3R,5R)-2-oxo-5-(trifluoromethyl)piperidin-3-yl)methyl)imidazo[1,2-b][1,2,4]triazin-6-yl)methyl)-1H-pyrazole-5-carboxamide]
29 | > 1000 | < 100 | CCn1ncnc1C(=O)N[C@H](c1cn2nc(C[C@H]3C[C@@H](C(F)(F)F)CNC3=O)c(C3CCOCC3)nc2n1)C1CCCCC1 [Compound 409]
30 | 100 to 1000 | < 100 | CCn1ncnc1C(=O)N[C@H](c1cn2nc(C[C@H]3C[C@@H](C(F)(F)F)CNC3=O)c(C3CCOCC3)nc2n1)C1CCCCCC1 [Compound 410]
